Measured values published in ChEMBL document CHEMBL1681651, “A broad spectrum anticancer nucleoside with selective toxicity against human colon cells in vitro” (2011).

Key:
Format in all cases: functional
HCT-116 = experiment: Growth inhibition of human HCT116 cells assessed as cell growth at 10 uM after 48 hrs by SRB assay; conditions: HCT-116, 48 h, read-out: Activity
SK-MEL-28 = experiment: Growth inhibition of human SK-MEL-28 cells assessed as cell growth at 10 uM after 48 hrs by SRB assay; conditions: SK-MEL-28, 48 h, read-out: Activity
OVCAR-5 = experiment: Growth inhibition of human OVCAR5 cells assessed as cell growth at 10 uM after 48 hrs by SRB assay; conditions: OVCAR-5, 48 h, read-out: Activity
TK-10 = experiment: Growth inhibition of human TK10 cells assessed as cell growth at 1 uM after 48 hrs by SRB assay; conditions: TK-10, 48 h, read-out: Activity
NCI/ADR-RES = experiment: Growth inhibition of human NCI/ADR-RES cells assessed as cell growth at 1 uM after 48 hrs by SRB assay; conditions: read-out: Activity
NCI-H226 [1] = experiment: Growth inhibition of human NCI-H226 cells after 48 hrs by […] growth inhibition assay; conditions: NCI-H226, 48 h
NCI-H322M [2] = experiment: Growth inhibition of human NCI-H322M cells after 48 hrs by […] growth inhibition assay
HT-29 = experiment: Growth inhibition of human HT-29 cells after 48 hrs by […] growth inhibition assay; conditions: HT-29, 48 h
UACC-62 = experiment: Growth inhibition of human UACC62 cells after 48 hrs by […] growth inhibition assay; conditions: UACC-62, 48 h
SF-539 = experiment: Growth inhibition of human SF539 cells after 48 hrs by […] growth inhibition assay; conditions: SF-539, 48 h
SN12C = experiment: Growth inhibition of human SN12C cells after 48 hrs by […] growth inhibition assay
BT-549 [3] = experiment: Growth inhibition of human BT549 cells after 48 hrs by […] growth inhibition assay; conditions: BT-549, 48 h
CCRF-CEM = experiment: Growth inhibition of human CCRF-CEM cells assessed as cell growth at 0.1 uM after 48 hrs by SRB assay; conditions: read-out: Activity
EKVX = experiment: Growth inhibition of human EKVX cells assessed as cell growth at 0.1 uM after 48 hrs by SRB assay; conditions: read-out: Activity
NCI-H522 = experiment: Growth inhibition of human NCI-H522 cells assessed as cell growth at 0.1 uM after 48 hrs by SRB assay; conditions: NCI-H522, 48 h, read-out: Activity
DU-145 = experiment: Growth inhibition of human DU145 cells assessed as cell growth at 0.1 uM after 48 hrs by SRB assay; conditions: DU-145, 48 h, read-out: Activity
HCT-15 = experiment: Growth inhibition of human HCT15 cells assessed as cell growth at 100 uM after 48 hrs by SRB assay; conditions: HCT-15, 48 h, read-out: Activity
KM12 = experiment: Growth inhibition of human KM12 cells assessed as cell growth at 100 uM after 48 hrs by SRB assay; conditions: KM12, 48 h, read-out: Activity
UACC-257 = experiment: Growth inhibition of human UACC257 cells assessed as cell growth at 100 uM after 48 hrs by SRB assay; conditions: UACC-257, 48 h, read-out: Activity
786-0 = experiment: Growth inhibition of human 786-0 cells assessed as cell growth at 100 uM after 48 hrs by SRB assay; conditions: 786-0, 48 h, read-out: Activity
MDA-MB-435 = experiment: Growth inhibition of human MDA-MB-435 cells assessed as cell growth at 100 uM after 48 hrs by SRB assay; conditions: MDA-MB-435, 48 h, read-out: Activity
BT-549 [4] = experiment: Growth inhibition of human BT549 cells assessed as cell growth at 100 uM after 48 hrs by SRB assay; conditions: BT-549, 48 h, read-out: Activity
NCI-H322M [5] = experiment: Growth inhibition of human NCI-H322M cells assessed as cell growth at 1 mM after 48 hrs by SRB assay; conditions: read-out: Activity
Malme-3M = experiment: Growth inhibition of human MALME-3M cells assessed as cell growth at 1 mM after 48 hrs by SRB assay; conditions: read-out: Activity
M14 = experiment: Growth inhibition of human M14 cells assessed as cell growth at 1 mM after 48 hrs by SRB assay; conditions: M14, 48 h, read-out: Activity
OVCAR-8 = experiment: Growth inhibition of human OVCAR8 cells assessed as cell growth at 1 mM after 48 hrs by SRB assay; conditions: OVCAR-8, 48 h, read-out: Activity
A549 = experiment: Growth inhibition of human A549 cells assessed as cell growth at 1 uM after 48 hrs by SRB assay; conditions: A549, 48 h, read-out: Activity
HOP-62 = experiment: Growth inhibition of human HOP62 cells assessed as cell growth at 1 uM after 48 hrs by SRB assay; conditions: HOP-62, 48 h, read-out: Activity
NCI-H226 [6] = experiment: Growth inhibition of human NCI-H226 cells assessed as cell growth at 1 uM after 48 hrs by SRB assay; conditions: NCI-H226, 48 h, read-out: Activity
HCC 2998 = experiment: Growth inhibition of human HCC2998 cells assessed as cell growth at 1 uM after 48 hrs by SRB assay; conditions: HCC 2998, 48 h, read-out: Activity
IGROV-1 = experiment: Growth inhibition of human IGROV1 cells assessed as cell growth at 1 uM after 48 hrs by SRB assay; conditions: IGROV-1, 48 h, read-out: Activity
[7] = read-out: LC50 (the source's name)
[8] = read-out: pLC50 (the source's name) (converted)

Question: How did the growth at 10 µM (HCT-116) turn out when `CNC(=O)OC[C@H]1O[C@@H](n2cnc3c(NC(=O)Nc4ccccc4)ncnc32)[C@H](O[Si](C)(C)C(C)(C)C)[C@@H]1O[Si](C)(C)C(C)(C)C` was run?
Answer: Its growth at 10 µM is 66.7%.

Question: And the growth at 10 µM (SK-MEL-28)?
Answer: The growth at 10 µM was 102%.

Question: And the growth at 10 µM (OVCAR-5)?
Answer: Its growth at 10 µM is 120%.

Question: How did the growth at 1 µM (TK-10) turn out when `CCOC(=O)C[C@H]1[C@@H](O[Si](C)(C)C(C)(C)C)[C@H](n2cnc3c(NC(=O)Nc4ccccc4)ncnc32)O[C@@H]1CNC(=O)NC` was run?
Answer: Its growth at 1 µM is 103%.

Question: And the growth at 1 µM (NCI/ADR-RES)?
Answer: The growth at 1 µM was 107%.

Question: And the growth at 10 µM (HCT-116)?
Answer: Its growth at 10 µM is 78%.

Question: What about the GI50 (NCI-H226 [1]; read-out: GI50) of the same compound?
Answer: Its GI50 is over 100 µM.

Question: And the CC50 (NCI-H226 [1]; [7])?
Answer: Its CC50 is over 100 µM.

Question: What about the TGI (NCI-H226 [1]; read-out: TGI) of the same compound?
Answer: The TGI was over 100 µM.

Question: And the GI50 (NCI-H226 [1]; read-out: pGI50 (converted))?
Answer: The GI50 was over 100 µM.

Question: And the CC50 (NCI-H226 [1]; [8])?
Answer: The CC50 was over 100 µM.

Question: What about the TGI (NCI-H226 [1]; read-out: pTGI (converted)) of the same compound?
Answer: The TGI was over 100 µM.

Question: What about the GI50 (NCI-H322M [2]; read-out: GI50) of the same compound?
Answer: The GI50 was over 100 µM.

Question: What about the CC50 (NCI-H322M [2]; [7]) of the same compound?
Answer: The CC50 was over 100 µM.

Question: What about the TGI (NCI-H322M [2]; read-out: TGI) of the same compound?
Answer: The TGI was over 100 µM.

Question: And the GI50 (NCI-H322M [2]; read-out: pGI50 (converted))?
Answer: The GI50 was over 100 µM.

Question: And the CC50 (NCI-H322M [2]; [8])?
Answer: Its CC50 is over 100 µM.

Question: What about the TGI (NCI-H322M [2]; read-out: pTGI) of the same compound?
Answer: The TGI was over 100 µM.

Question: What about the GI50 (HT-29; read-out: GI50) of the same compound?
Answer: Its GI50 is 4.2 µM.

Question: And the CC50 (HT-29; [7])?
Answer: Its CC50 is over 100 µM.

Question: And the TGI (HT-29; read-out: TGI)?
Answer: The TGI was over 100 µM.

Question: What about the GI50 (HT-29; read-out: pGI50 (converted)) of the same compound?
Answer: The GI50 was 4.17 µM.

Question: And the CC50 (HT-29; [8])?
Answer: Its CC50 is over 100 µM.

Question: What about the TGI (HT-29; read-out: pTGI (converted)) of the same compound?
Answer: The TGI was over 100 µM.

Question: And the GI50 (UACC-62; read-out: GI50)?
Answer: The GI50 was over 100 µM.

Question: What about the CC50 (UACC-62; [7]) of the same compound?
Answer: The CC50 was over 100 µM.

Question: And the TGI (UACC-62; read-out: TGI)?
Answer: Its TGI is over 100 µM.

Question: What about the GI50 (UACC-62; read-out: pGI50 (converted)) of the same compound?
Answer: The GI50 was over 100 µM.

Question: What about the CC50 (UACC-62; [8]) of the same compound?
Answer: Its CC50 is over 100 µM.

Question: And the TGI (UACC-62; read-out: pTGI (converted))?
Answer: The TGI was over 100 µM.

Question: And the GI50 (SF-539; read-out: GI50)?
Answer: The GI50 was 5.19 µM.

Question: What about the CC50 (SF-539; [7]) of the same compound?
Answer: The CC50 was over 100 µM.

Question: What about the TGI (SF-539; read-out: TGI) of the same compound?
Answer: Its TGI is over 100 µM.

Question: And the GI50 (SF-539; read-out: pGI50 (converted))?
Answer: The GI50 was 5.25 µM.

Question: What about the CC50 (SF-539; [8]) of the same compound?
Answer: Its CC50 is over 100 µM.

Question: And the TGI (SF-539; read-out: pTGI (converted))?
Answer: The TGI was over 100 µM.

Question: What about the GI50 (SN12C; read-out: GI50) of the same compound?
Answer: The GI50 was 9.1 µM.

Question: What about the CC50 (SN12C; [7]) of the same compound?
Answer: Its CC50 is over 100 µM.

Question: What about the TGI (SN12C; read-out: TGI) of the same compound?
Answer: The TGI was over 100 µM.

Question: What about the GI50 (SN12C; read-out: pGI50 (converted)) of the same compound?
Answer: The GI50 was 9.12 µM.

Question: And the CC50 (SN12C; [8])?
Answer: The CC50 was over 100 µM.

Question: What about the TGI (SN12C; read-out: pTGI (converted)) of the same compound?
Answer: The TGI was over 100 µM.

Question: And the GI50 (BT-549 [3]; read-out: GI50)?
Answer: Its GI50 is over 100 µM.

Question: And the CC50 (BT-549 [3]; [7])?
Answer: The CC50 was over 100 µM.

Question: And the TGI (BT-549 [3]; read-out: TGI)?
Answer: Its TGI is over 100 µM.

Question: And the GI50 (BT-549 [3]; read-out: pGI50 (converted))?
Answer: The GI50 was over 100 µM.

Question: What about the CC50 (BT-549 [3]; [8]) of the same compound?
Answer: The CC50 was over 100 µM.

Question: What about the TGI (BT-549 [3]; read-out: pTGI (converted)) of the same compound?
Answer: Its TGI is over 100 µM.

Question: And the growth at 0.1 µM (CCRF-CEM)?
Answer: Its growth at 0.1 µM is 96%.

Question: And the growth at 0.1 µM (EKVX)?
Answer: The growth at 0.1 µM was 92%.

Question: What about the growth at 0.1 µM (NCI-H522) of the same compound?
Answer: Its growth at 0.1 µM is 89%.

Question: What about the growth at 0.1 µM (DU-145) of the same compound?
Answer: The growth at 0.1 µM was 110%.

Question: And the growth at 10 µM (SK-MEL-28)?
Answer: Its growth at 10 µM is 100%.

Question: And the growth at 10 µM (OVCAR-5)?
Answer: Its growth at 10 µM is 95%.

Question: What about the growth at 100 µM (HCT-15) of the same compound?
Answer: Its growth at 100 µM is 47%.

Question: What about the growth at 100 µM (KM12) of the same compound?
Answer: Its growth at 100 µM is 13%.

Question: What about the growth at 100 µM (UACC-257) of the same compound?
Answer: The growth at 100 µM was 34%.

Question: What about the growth at 100 µM (786-0) of the same compound?
Answer: The growth at 100 µM was -34%.

Question: What about the growth at 100 µM (MDA-MB-435) of the same compound?
Answer: The growth at 100 µM was 40%.

Question: And the growth at 100 µM (BT-549 [4])?
Answer: Its growth at 100 µM is 67%.

Question: And the growth at 1000 µM (NCI-H322M [5])?
Answer: The growth at 1000 µM was 72%.

Question: And the growth at 1000 µM (Malme-3M)?
Answer: Its growth at 1000 µM is 17%.

Question: And the growth at 1000 µM (M14)?
Answer: Its growth at 1000 µM is -56%.

Question: What about the growth at 1000 µM (OVCAR-8) of the same compound?
Answer: Its growth at 1000 µM is -4%.

Question: And the growth at 1 µM (A549)?
Answer: Its growth at 1 µM is 103%.

Question: And the growth at 1 µM (HOP-62)?
Answer: The growth at 1 µM was 92%.

Question: What about the growth at 1 µM (NCI-H226 [6]) of the same compound?
Answer: The growth at 1 µM was 105%.

Question: What about the growth at 1 µM (HCC 2998) of the same compound?
Answer: Its growth at 1 µM is 96%.

Question: And the growth at 1 µM (IGROV-1)?
Answer: Its growth at 1 µM is 94%.
